Results on six compounds are retold here after patent US20240301501A1, “A METHOD FOR ASSESSING THE POTENTIAL EFFECT OF THERAPEUTICS ON AN INDIVIDUAL” (AGENCY FOR SCIENCE TECHNOLOGY AND RESEARCH, priority 2022, published 2024).

A short description of series [1]: Measurement of tamoxifen metabolites in finger-prick blood (VAMS, UPLC-MS/MS). The format is in vivo, human (Indonesian ER+ breast cancer patients). Conditions: for range of metabolite levels before dose adjustment / range of metabolite levels after dose adjustment: IM patients (n=26); for range of metabolite levels before dose adjustment: tamoxifen 20 mg daily; for range of metabolite levels after dose adjustment: tamoxifen 40 mg daily for two months; for concentration at 8 weeks: human, whole blood (finger-prick, VAMS), oral, 40 mg daily, read-out: range of metabolite levels after dose adjustment. The procedure: Finger-prick blood sample was obtained using Volumetric Absorptive Microsampling (VAMS) technique. VAMS extraction was performed in methanol by sonication-assisted extraction method for 25 minutes after 2 hours of VAMS drying. Separation was carried out using Acquity UPLC BEH C1s column (2.1×100 mm; 1.7 μm), with a flow rate of 0.2 mL/minute, and the mobile phase gradient of formic acid 0.1% combined with formic acid 0.1% in acetonitrile for 5 minutes. The UPLC-MS/MS Waters Xevo TQD Triple Quadrupole with MassLynx Software controller (Waters, Milford, USA) was employed in metabolites measurement. Mass detection was carried out utilizing Triple Quadrupole (TOD) with Multiple Reaction Monitoring (MRM) analysis modes and an electrospray ionization source using positive mode. The method was developed in the Bioavailability and Bioequivalence Laboratory of Universitas Indonesia and validated according to FDA and EMA guidelines. The multiple reaction monitoring (MRM) value were set at m/z 372.28>72.22 for TAM; 374.29>58.22 for END; 388.29>72.19 for 4-HT; 358.22>58.09 for NDT; and 260.20>116.20 for propranolol as the internal standard.
(§1) This group of patients were determined based on clinical judgement according to the available guidelines by The National Surgical Oncologist Organization and Ministry of Health in Indonesia (Komite Penanggulangan Kanker Nasional, n.d.), National Comprehensive Cancer Network (NCCN, 2021), and British Columbia Cancer Agency.
(§2) Data and statistical analysis were performed using Microsoft® Excel® for Microsoft 365 and R version 4.0.3. Deviation from Hardy-Weinberg equilibrium was performed on the haplotype frequencies using the chi-square statistical test, where Bonferonni correction was applied to determine the p-value threshold for significant deviation. Analysis of Variance (ANOVA) test was used to see if metabolite levels distribution at baseline were statistically different across all metabolites, followed by a paired T-test between each pair of metabolites when significance was found. Distribution of metabolite levels before and after dose adjustment was compared using a T-test, and the same test was used to compare the distribution of metabolite levels in IMs post-dose adjustment against NMs (baseline). Concerning symptoms related to endocrine therapy post-dose adjustment on IMs were compared against NMs. Chi-square test was performed per symptom to check for the difference between the two groups.

For series [2] the following is noted: cited from earlier work.
Series [3] in a line: Endocrine symptoms / side effects of tamoxifen therapy, FACT-ES questionnaire. The format is in vivo, human (Indonesian ER+ breast cancer patients). Here is the method:
as §1, §2

[4] abbreviates: CYP2D6 Intermediate Metabolizer (N = 61), baseline.
[5] abbreviates: CYP2D6 Normal Metabolizer (N = 81), baseline.
Setting [6] is: CYP2D6 Poor Metabolizer (N = 2), baseline.
Where [7] appears, read: IM participants, 40 mg tamoxifen daily (N = 22), eight weeks after dose adjustment.
[8] abbreviates: IM participants, 40 mg tamoxifen daily, eight weeks after dose adjustment.
The mark [9] stands for this setting: IMs, 40 mg tamoxifen daily, n=26.
[10] abbreviates: NM participants, 20 mg tamoxifen daily (N = 31).
Setting [11] is: NMs, 20 mg tamoxifen daily, n=31.

Like-named read-outs stand apart in the source and are kept apart here.

With 4-hydroxytamoxifen, in series [1], the “range of metabolite levels before dose adjustment” value is 1.5 to 9.31 ng/mL and the “range of metabolite levels after dose adjustment” value lay within 3.34 to 12.99 ng/mL.
Turning to `CC/C(=C(\c1ccc(O)cc1)c1ccc(OCCN(C)C)cc1)c1ccccc1` [4OH-tam], the figures for the “Peripheral Whole Blood Concentration, Median” value in series [1] (setting [4]), in series [1] (setting [5]) and in series [1] (setting [6]) were 3.27 ng/mL, 3.07 ng/mL and 3.24 ng/mL, respectively. Moreover, the “Peripheral Whole Blood Concentration, Range” value in series [1] (setting [4]) lay within 1.5 to 9.31 ng/mL; in series [1] (setting [5]), 1.5 to 7.66 ng/mL; in series [1] (setting [6]) it was 3.06 to 3.43 ng/mL.
For the compound `CC/C(=C(\c1ccccc1)c1ccc(OCCNC)cc1)c1ccccc1` [N-desmethyltamoxifen], in series [1], the “range of metabolite levels before dose adjustment” value was in the range of 77.61 to 337.29 ng/mL and the “range of metabolite levels after dose adjustment” value fell in the range of 236.8 to 501.9 ng/mL.
As to `CC/C(=C(\c1ccccc1)c1ccc(OCCNC)cc1)c1ccccc1` [ND-tam], the “Peripheral Whole Blood Concentration, Median” value stood at 241.55 ng/mL in series [1] (setting [4]), 240.59 ng/mL in series [1] (setting [5]) and 276.45 ng/mL in series [1] (setting [6]). In addition, the “Peripheral Whole Blood Concentration, Range” value in series [1] (setting [4]) was in the range of 77.61 to 337.29 ng/mL; in series [1] (setting [5]), 80.63 to 321.88 ng/mL; in series [1] (setting [6]) it was 212.5 to 340.41 ng/mL.
For the compound `CC/C(=C(\c1ccc(O)cc1)c1ccc(OCCNC)cc1)c1ccccc1` [endoxifen, 4-hydroxy-N-desmethyltamoxifen], the “average endoxifen level of IMs” value is on record as 8.1 ng/mL in series [2] (previous study) and 9.6 ng/mL in series [1] (this study, IMs). The “range of endoxifen level” value in series [2] (study in Singaporean population) was 1.74 to 42.8 ng/mL; in series [2] (study in Swedish population), 2.3 to 16 ng/mL. The “Peripheral Whole Blood Concentration, Median” value in series [1] (setting [4]) is 8.33 ng/mL; in series [1] (setting [5]), 11.98 ng/mL; in series [1] (setting [6]), 4.52 ng/mL. For the same compound, the “Peripheral Whole Blood Concentration, Range” value in series [1] (setting [4]) fell in the range of 3.17 to 22.97 ng/mL; in series [1] (setting [5]) it was 3.55 to 34.77 ng/mL; in series [1] (setting [6]), 3.94 to 5.11 ng/mL. The “range of metabolite levels before dose adjustment” value in series [1] lay within 3.17 to 22.97 ng/mL. The “endoxifen levels in NMs at baseline” value in series [1] (NM patients (n=81), tamoxifen 20 mg/day, baseline) was 3.55 to 34.77 ng/mL. Also, the concentration at 8 weeks in series [1] is 7.68 to 23.4 ng/mL.
As to `CC/C(=C(\c1ccccc1)c1ccc(OCCN(C)C)cc1)c1ccccc1` [tamoxifen], the “toxicity or side effects on dose escalation” value in series [3] (40 mg daily versus 20 mg daily, eight weeks after dose adjustment) is “did not increase potential toxicity or side effects”. Besides, in series [3] (setting [7]), the “Cold Sweats: Patients reported side effect (%)” value is 19.23%, the “Diarrhea: Patients reported side effect (%)” value was found to be 0.00%, the “Headaches: Patients reported side effect (%)” value is recorded as 53.85% and the “Hot Flashes: Patients reported side effect (%)” value turned out to be 50.00%. Moreover, in series [3] (setting [7]), the “Lightheaded (dizzy): Patients reported side effect (%)” value is reported as 34.62%, the “Mood swings: Patients reported side effect (%)” value turned out to be 65.38%, the “Pain in joints: Patients reported side effect (%)” value amounted to 50.00% and the “Pain or discomfort with intercourse: Patients reported side effect (%)” value is on record as 3.85%. Moreover, in series [3] (setting [8]), the “Breast sensitivity/tenderness: Patients reported side effect (%)” value came out at 53.85%, the “Irritable: Patients reported side effect (%)” value is on record as 61.54%, the “Lost interest in sex: Patients reported side effect (%)” value is given as 15.38% and the “Night sweats: Patients reported side effect (%)” value stood at 26.92%. Moreover, in series [3] (setting [8]), the “Vaginal bleeding or spotting: Patients reported side effect (%)” value was 23.08%, the “Vaginal discharge: Patients reported side effect (%)” value came to 42.31%, the “Vaginal dryness: Patients reported side effect (%)” value amounted to 11.54% and the “Vaginal itching/irritation: Patients reported side effect (%)” value was determined as 15.38%. Further, in series [3] (setting [8]), the “Vomiting: Patients reported side effect (%)” value was 3.85% and the “Weight gain: Patients reported side effect (%)” value is reported as 65.38%. In series [3] (setting [9]), the “breast sensitivity or tenderness, participants reporting” value was 53.85%; the “cold sweats, participants reporting” value is 19.23%; the “headaches, participants reporting” value was found to be 53.85%; the “hotflush, participants reporting” value was 50%. Besides, in series [3] (setting [9]), the “irritability, participants reporting” value is reported as 61.54%; the “lightheaded/dizziness, participants reporting” value is recorded as 34.62%; the “lost interest in sex, participants reporting” value turned out to be 15.38%; the “mood swings, participants reporting” value came out at 65.83%. Besides, in series [3] (setting [9]), the “night sweats, participants reporting” value worked out at 26.92%; the “pain in joints, participants reporting” value amounted to 50%; the “pain or discomfort during intercourse, participants reporting” value worked out at 3.85%; the “vaginal bleeding or spotting, participants reporting” value was determined as 23.08%. In series [3] (setting [9]), the “vaginal discharge, participants reporting” value is reported as 42.31%; the “vaginal dryness, participants reporting” value came out at 11.54%; the “vaginal itching or irritation, participants reporting” value is listed as 15.38%; the “vomiting, participants reporting” value turned out to be 3.85%. For the same compound, in series [3] (setting [9]), the “weight gain, participants reporting” value was determined as 65.83%. For the same compound, the “diarrhea, participants reporting” value in series [3] (IMs, 40 mg tamoxifen daily, post-dose adjustment) was “No post-dose adjustment participants reported diarrhea”. In addition, in series [3] (setting [10]), the “Breast sensitivity/tenderness: Patients reported side effect (%)” value came to 41.94%, the “Cold Sweats: Patients reported side effect (%)” value was 12.90%, the “Diarrhea: Patients reported side effect (%)” value is given as 3.23% and the “Headaches: Patients reported side effect (%)” value was 29.03%. Besides, in series [3] (setting [10]), the “Hot Flashes: Patients reported side effect (%)” value worked out at 35.48%, the “Irritable: Patients reported side effect (%)” value is given as 58.06%, the “Lightheaded (dizzy): Patients reported side effect (%)” value is given as 35.48% and the “Lost interest in sex: Patients reported side effect (%)” value was 64.52%. Moreover, in series [3] (setting [10]), the “Mood swings: Patients reported side effect (%)” value stood at 74.19%, the “Night sweats: Patients reported side effect (%)” value is on record as 29.03%, the “Pain in joints: Patients reported side effect (%)” value was 67.74% and the “Pain or discomfort with intercourse: Patients reported side effect (%)” value is given as 51.61%. For the same compound, in series [3] (setting [10]), the “Vaginal bleeding or spotting: Patients reported side effect (%)” value was 16.13%, the “Vaginal dryness: Patients reported side effect (%)” value is listed as 32.26%, the “Vaginal itching/irritation: Patients reported side effect (%)” value is recorded as 22.58% and the “Vomiting: Patients reported side effect (%)” value is recorded as 6.45%. The “Weight gain: Patients reported side effect (%)” value in series [3] (setting [10]) stood at 64.52%. In addition, in series [3] (setting [11]), the “breast sensitivity or tenderness, respondents reporting” value stood at 41.94%; the “cold sweats, respondents reporting” value is recorded as 12.9%; the “diarrhea, respondents reporting” value was determined as 3.23%; the “headaches, respondents reporting” value was determined as 29.03%. Besides, in series [3] (setting [11]), the “hotflush, respondents reporting” value came out at 35.48%; the “irritability, respondents reporting” value turned out to be 58.06%; the “lightheaded/dizziness, respondents reporting” value is reported as 35.48%; the “lost interest in sex, respondents reporting” value is 64.52%. In addition, in series [3] (setting [11]), the “mood swings, respondents reporting” value is 74.19%; the “night sweats, respondents reporting” value is reported as 29.03%; the “pain in joints, respondents reporting” value was found to be 67.74%; the “pain or discomfort during intercourse, respondents reporting” value turned out to be 51.61%. Further, in series [3] (setting [11]), the “vaginal bleeding or spotting, respondents reporting” value worked out at 16.13%; the “vaginal dryness, respondents reporting” value was 32.26%; the “vaginal itching or irritation, respondents reporting” value was determined as 22.58%; the “vomiting, respondents reporting” value stood at 6.45%. Further, in series [3] (observed population, short follow up), the “thrombophlebitis, thrombosis, endometriosis, and endometrial cancer” value was “none of these side effects were observed”. Further, in series [1] (setting [4]), the “Peripheral Whole Blood Concentration, Median” value came out at 81.72 ng/mL and the “Peripheral Whole Blood Concentration, Range” value fell in the range of 14.22 to 210.39 ng/mL. Further, in series [1] (setting [5]), the “Peripheral Whole Blood Concentration, Median” value is reported as 77.46 ng/mL and the “Peripheral Whole Blood Concentration, Range” value is 31.22 to 170.82 ng/mL. In series [1] (setting [6]), the “Peripheral Whole Blood Concentration, Median” value was found to be 91.49 ng/mL and the “Peripheral Whole Blood Concentration, Range” value lay within 67.49 to 115.48 ng/mL. Also, in series [1], the “range of metabolite levels before dose adjustment” value was 14.22 to 210.39 ng/mL and the concentration at 8 weeks was in the range of 80.6 to 255 ng/mL.
